Experiment [1] has as its system critical sized defect in the rat femur. Description: Long Evans rat femur gap model, scaffold in 5 mm segmental defect. The class given is in vivo, Long Evans rats. An excerpt: A pilot study utilizing the Long Evans rat femur gap model which has been approved by the Laboratory Animal Care and Usage Committee (IACUC) at Indiana University was used to test a new method for repairing bone gaps. In brief, tube shape scaffolds with 4 mm external diameter, 2 mm internal diameter and 5 mm in height were manufactured from poly(propylene) fumarate/tricalcium phosphate. […] In the control group, the scaffolds were left untreated (n=3/group). Segmental defects of 5 mm were created in the right femurs of male Long Evans rats. The defect was filled with a 5 mm scaffold and secured with an intramedullary K-wire placed in retrograde fashion. Femurs were imaged by x-ray to assure proper placement and integrity of the scaffold. The rats were then imaged using x-ray at three week intervals to assess continued healing. At post-operative weeks 6 and 15, rats were euthanized and femurs analyzed by x-ray, microCT, and histology.
At 15 weeks, mineralized callus was seen bridging the two bone ends. In some areas adjacent to the scaffolds, isolated patches of cartilage with hypertrophic chondrocytes were observed, indicating the tissues were undergoing endochondral bone formation.

The test system of experiment [2] is C57BL/6 bone marrow macrophages (BMMs). Description: Osteoclast formation from bone marrow macrophages cultured with M-CSF and RANKL, TRAP staining. The class given is cell-based, mouse. The protocol: FIG. 2. Bar graph showing C57BL/6 bone marrow macrophages (BMMs) were cultured with M-CSF (30 ng/ml) and RANKL (50 ng/ml). While culturing C57BL/6 BMMs with M-CSF and RANKL (no TPO) results in the generation of mature TRAP^+ multinucleated osteoclasts (OCs) (>3 nuclei), culturing these cells with TPO (0.1-100 ng/ml) enhances the number OCs by >2-fold. *p<0.05
FIG. 3A. Representative micrograph of cultures of BMMs stimulated with M-CSF (30 ng/ml) and RANKL (50 ng/ml).
FIG. 3B. Representative micrograph of cultures of BMMs stimulated with M-CSF (30 ng/ml) and RANKL (50 ng/ml).

Experiment [3] relates to critical sized femoral defect. In words: Mouse critical sized femoral defect with scaffold, x-ray follow-up. Format: in vivo, C57BL/6 male mice. An excerpt: A critical sized femoral defect was created in the right femur of ten-week old C57BL/6 male mice. Our scaffold was inserted into the defect site. […] Referring now to FIG. 6, a critical sized femoral defect was created in the right femur of ten week old C57BL/6 male mice. A scaffold was inserted into the defect site.

Bounds are passed on as bounds.

For thrombopoietin [TPO], the “healing of critical sized defect (microCT)” value in experiment [1] (10 μg in scaffold, post-operative week 15, n=3/group) is on record as “robustly healed”. Further, the “cortex and trabeculae of the callus compared to callus induced by BMP-2” value in experiment [1] (10 μg in scaffold, week 15, BMP-2 from an earlier study) is recorded as “thicker”. In experiment [1] (15 weeks post-operative, μCT (FIG. 5)), the “remodeling compared with BMP-2” value is on record as “more extensive remodeling”. Also, the “mature multinucleated OCs developed (TRAP staining)” value in experiment [2] (TPO 100 ng/ml, M-CSF 30 ng/ml, RANKL 50 ng/ml) is on record as “Significantly more OCs developed”. In addition, the “enhancement of the number of mature TRAP+ multinucleated osteoclasts (OCs)” value in experiment [2] (TPO 0.1-100 ng/ml, M-CSF 30 ng/ml, RANKL 50 ng/ml, vs no TPO, p<0.05) was over 2 fold. Further, in experiment [2] (osteoclast progenitors treated with TPO in vitro), the increase of osteoclastogenesis entry was “up to 5 fold”. The “bridging callus formation (x-ray)” value is “remain unbridged” in experiment [3] (2 weeks postoperatively, TPO 1 μg, BMP-2 4 μg in scaffold) and “have bridged” in experiment [3] (4-6 weeks postoperatively, TPO 1 μg in scaffold). Also, in experiment [3] (4-6 weeks, TPO 1 μg vs BMP-2 4 μg), the “restoration of bone contour compared with BMP-2 scaffolds” value is recorded as “better restores the original contour of the bone”.
